Measurements published in patent publication US11530196B2, “Pyrimidine compound acting on EGFR and ERBB2” (CHINA RESOURCES PHARMACEUTICAL HOLDINGS COMPANY LIMITED, priority 2019, dated 2022).

Assays:
[1] = molecular target: Ba/F3 EGFR-D770_N771insSVD (Homo sapiens, UniProt P00533, DUP768-770, cells depend on it); experiment: Anti-proliferation against Ba/F3 exon 20 insertion mutant cells (SVD); format: cell-based, mouse; settings: CTG, 72 hours, read-out: Mutant cells IC50 (anti-proliferation)
Text: RPMI1640 medium was purchased from Hyclone, FBS fetal bovine serum was purchased from GBICO, and trypsin-EDTA were both purchased from Giboco. DPBS was purchased from Corning, penicillin/streptomycin solution was purchased from Hyclone, and Cell-Titer Glo reagent was purchased from Promega (Cat. No. G7572). Ba/F3 EGFR-D770_N771insSVD, Ba/F3 EGFR-H773_V774insNPH, Ba/F3 EGFR-V769_D770insASV, BaF3 ERBB2 A775_G776 ins YVMA, the cell lines were constructed by Beijing Kang Yuan Bochuang Biotechnology Co., Ltd. Plate reading instrument: Envision (PerkinElmer).
Cells in logarithmic growth phase were harvested and cell counts were performed using a […]. Cell viability was detected by the Taipan Blue rejection assay. The cell concentration was adjusted; the cell suspension was added to a 96-well plate separately. Cells in 96-well plates were incubated overnight at 37° C., 5% CO2, and 95% humidity. To prepare the drug solution, 10 μL of drug solution was added to each well of the 96-well plate inoculated with cells, and three replicate wells were set up for each drug concentration. The cells in the 96-well plates added with drugs were placed at 37° C., 5% CO2, 95% humidity and continued to incubate for 72 hours, after which CTG analysis was performed and the cells were vibrated on an orbital shaker to lyse the cells. The cell plate was placed at room temperature to stabilize the cold light signal, and the cold light values were read. The data were analyzed using GraphPad Prism 7.0 software, and a nonlinear S-curve regression was used to fit the data to derive the dose-effect curve from which the IC50 values were calculated.
The IC50 of anti-proliferation activity against Ba/F3 Exon20 insertion mutant cells of the compounds of the present disclosure is shown in Table 5.
Ba/F3 exon 20 insertion mutant cells are cell lines with SVD, NPH, ASV, and YVMA insertion mutations artificially constructed using mouse B cells, and it can be seen from Table 5 that the compounds of the present disclosure have better cellular anti-proliferation activity against the […] exon 20 insertion mutations such as SVD, NPH, ASV, and YVMA, and also show better anti-proliferation activity against common exon 20 insertion mutations such as SVD mutation.

[2] = test system: non-small cell lung cancer with EGFR and HER2 exon 20 insertion mutation; settings: clinical reports, NSCLC with EGFR and HER2 exon 20 insertion mutation; cited from earlier work

Sequence of Ba/F3 EGFR-D770_N771insSVD (P00533 with tags, fused parts or gaps DUP768-770): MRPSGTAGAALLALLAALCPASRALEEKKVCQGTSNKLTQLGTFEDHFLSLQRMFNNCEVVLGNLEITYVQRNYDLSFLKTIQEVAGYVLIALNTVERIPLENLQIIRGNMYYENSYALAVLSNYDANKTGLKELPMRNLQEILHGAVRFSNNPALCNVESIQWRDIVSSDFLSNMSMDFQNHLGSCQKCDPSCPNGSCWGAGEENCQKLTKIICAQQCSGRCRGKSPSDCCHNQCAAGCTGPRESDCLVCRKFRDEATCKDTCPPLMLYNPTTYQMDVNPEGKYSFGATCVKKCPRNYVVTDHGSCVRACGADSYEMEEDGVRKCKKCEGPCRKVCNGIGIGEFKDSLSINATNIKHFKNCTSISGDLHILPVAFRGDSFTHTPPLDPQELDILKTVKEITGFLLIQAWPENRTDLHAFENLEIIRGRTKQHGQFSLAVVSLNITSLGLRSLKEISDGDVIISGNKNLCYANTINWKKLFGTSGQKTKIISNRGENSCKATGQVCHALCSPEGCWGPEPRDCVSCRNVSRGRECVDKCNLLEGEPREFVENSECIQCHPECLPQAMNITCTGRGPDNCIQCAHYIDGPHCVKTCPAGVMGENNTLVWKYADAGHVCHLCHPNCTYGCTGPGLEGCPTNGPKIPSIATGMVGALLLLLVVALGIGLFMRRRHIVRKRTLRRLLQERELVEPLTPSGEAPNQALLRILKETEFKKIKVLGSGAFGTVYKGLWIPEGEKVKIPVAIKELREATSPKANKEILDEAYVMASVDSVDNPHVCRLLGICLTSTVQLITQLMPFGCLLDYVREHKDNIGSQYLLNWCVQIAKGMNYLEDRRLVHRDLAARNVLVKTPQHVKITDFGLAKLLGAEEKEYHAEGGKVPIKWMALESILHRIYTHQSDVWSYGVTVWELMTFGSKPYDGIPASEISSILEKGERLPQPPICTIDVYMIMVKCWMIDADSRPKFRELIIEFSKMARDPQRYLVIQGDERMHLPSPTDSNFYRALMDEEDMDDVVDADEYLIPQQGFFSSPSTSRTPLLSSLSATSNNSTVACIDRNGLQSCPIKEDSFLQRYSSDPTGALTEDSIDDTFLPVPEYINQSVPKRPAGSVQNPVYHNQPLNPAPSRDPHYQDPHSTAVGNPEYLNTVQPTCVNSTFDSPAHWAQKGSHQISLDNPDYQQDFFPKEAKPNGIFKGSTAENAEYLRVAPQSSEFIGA

| GI50 [1] [nM] | Structure (SMILES) | disease control rate [2] [%] | objective response rate [2] [%] |
| --- | --- | --- | --- |
| 54 | C=CC(=O)Nc1cc(Nc2ncc(C(=O)OC(C)C)c(-c3cn(OC(C)C)c4ccccc34)n2)c(OC)cc1N(C)CCN(C)C [Compound 3] |  |  |
| 58 | C=CC(=O)Nc1cc(Nc2ncc(C(=O)OC(C)C)c(-c3cn(OC)c4c(C5CC5)cccc34)n2)c(OC)cc1N(C)CCN(C)C [Compound 5] |  |  |
| 27 | C=CC(=O)Nc1cc(Nc2ncc(C(=O)OC(C)C)c(-c3cn(OCC)c4ccccc34)n2)c(OC)cc1N(C)CCN(C)C [Compound 2] |  |  |
| 33 | C=CC(=O)Nc1cc(Nc2ncc(C(=O)OC(C)C)c(-c3cn(OC)c4c(Cl)cccc34)n2)c(OC)cc1N(C)CCN(C)C [Compound 4] |  |  |
|  | C=CC(=O)Nc1cc(Nc2ncc(C(=O)OC(C)C)c(-c3cn(C)c4ccccc34)n2)c(OC)cc1N(C)CCN(C)C [TAK788] | 86 | 43 |
